From US10272144B2, “Compositions for and methods of treating and preventing targeting tumor associated carbohydrate antigens” (Board of Trustees of the University of Arkansas, priority 2013, dated 2019)
“And” between values parts separate entries of the source, which are not always exact repeats. Equal entries are not always repeated. “Also recorded” adds a separate entry of the source.

Key:
ZR-75-1 cells = experiment: Toxicity against ZR-75-1 cells; format: cell-based, human; conditions: other experiments
MDA-MB-231 cells [1] = experiment: Apoptosis induction (annexin V/propidium iodide); format: cell-based, human; conditions: overnight incubation with sera; FIG. 16
Description: Cells were incubated with 10% FBS (control) or either pre-immune or post-immune sera overnight and then harvested and stained with annexin V-FITC (FL1) and propidium iodide (FL3). Quadrants J4, P4 and Q4 show apoptotic cells in control, pre-immune serum treated and post-immune serum treated cells, respectively.

HCC1954 cells [2] = experiment: Binding of serum IgG to HCC1954 cells (flow cytometry); format: cell-based, human; conditions: week 7 serum, 1:100 dilution; FIG. 14A
Description: (§1) HCC1954 cells were harvested with enzyme-free buffer, washed and incubated with pre-immune sera or post-immune sera collected from the patient at Week 7. Binding of IgG antibodies in the sera to HCC1954 cells was visualized with an FITC-conjugated mouse anti-human IgG. […] The dashed line histogram show binding of IgG from pre-immune serum to HCC1954 cells. The solid line histogram show binding of IgG from post-immune serum collected at week 7 to HCC1954 cells. 1:100 dilution of the serum was used for reactivity. FIG. 14B is a bar graph showing that serum from the patient collected 7 weeks post-immunization kills HCC1954 breast cancer cells in vitro. 1×10^4 cells were seeded in wells of 96-well plate in medium containing 10% FBS. […] Medium in control wells contained 10% FBS. Media were refreshed after 24 hours. 48 hours after addition of sera, supernatants were removed, cells fixed and stained with Crystal violet. Percentage of cytotoxicity was calculated based on cell number in control wells. Error bars represent SD based on three replications. The experiment was repeated three times. Two tail Student's t-test was used for comparison of means.

MCF-10A cells = experiment: Cytotoxicity of plasma on MCF-10A; format: cell-based, human; conditions: 10% plasma, 24 hours (up to 72 hours); non-tumorigenic line; FIG. 12
Description: Pictures were taken after 24 hours of incubation with 10% plasma of the indicated subjects.
(§2) Medium in control wells contained 10% FBS.

[3] = tested on: stage IV breast cancer patients; experiment: Phase I trial: clinical response (disease progression); format: in vivo, human; conditions: one line per subject, concurrent chemotherapy
Excerpt: The P10s-PADRE vaccine was developed for, inter alia, treatment of breast cancer patients with high risk of disease relapse. In the Phase I trial, research participants were restricted to females with histological or cytological confirmed stage IV breast cancer. Women 18 years of age or older, of all races, with histologically or cytologically confirmed stage IV breast cancer were eligible, and subjects were enrolled after providing written, informed consent. Disease staging was done according to the American Joint Commission on Cancer (AJCC), sixth edition. The following eligibility criteria were used: The cancer may have been newly diagnosed metastatic or relapsed after primary or adjuvant therapy and must not have required a treatment change for 2 months. Treatments with anti-estrogen therapy or chemotherapy were allowed. The chemotherapy regimen could not contain steroids in the pre- or post-supportive-care medications. […] Subjects had to be immunocompetent as measured by responsiveness to two recall antigens by skin testing. […]

MDA-MB-231 cells [4] = experiment: Sensitization of tumor cells to docetaxel toxicity by post-immune serum; format: cell-based, human; conditions: 5 hours pre-incubation, docetaxel 24 hours; IC50 differs from FBS and pre-immune (P 6.21E-08, 0.002); FIG. 9
Description: MDA-MB-231 cells were cultured in RPMI medium containing 10% FBS overnight. Medium was then replaced with one that contained either pre-immune serum or post-immune serum. FBS was used as control. After 5 hours of incubation, docetaxel was added in serial dilutions into wells. 24 hours later wells were washed and live cells were fixed, stained and counted. Percentage of survival was calculated as the ratio of cell number at a given drug dose to the cell number at the “0” drug dose. Prism 5 software was used to fit dose response curves using survival data. IC50 of each curve was calculated.
MDA-MB-231 cells were cultured in RPMI medium containing 10% FBS overnight. Medium was then replaced with one that contained pre or post-immune sera. FBS was used as control. After 5 hours of incubation docetaxel was added in serial dilutions into wells. 24 hours later wells were washed and live cells were fixed, stained and counted. Percentage of survival was calculated as the ratio of cell number at a given drug dose to the cell number at the “0” drug dose. Prism 5 software was used to fit dose response curves using survival data. IC50 of each curve was calculated.

[5] = tested on: cancer cells (HCC1954 and MDA-MB-231); experiment: Immunized plasma toxicity on cancer cells (both cell lines); format: cell-based, human; conditions: one line per subject
Excerpt: as §2

[6] = tested on: metastatic HER2+ Breast Cancer; experiment: Clinical course of patient with metastatic HER2+ breast cancer (PET scans); format: in vivo, human; conditions: one patient, on continued Vinorelbine and Trastuzumab; after initial increased PET uptake
HCC1954 cells [7] = experiment: Inhibition of migration of HCC1954 cells (transwell); format: cell-based, human; conditions: week 7 serum, 20 hours in transwells; FIG. 15
Description: Cells were starved overnight and then harvested and mixed with either pre-immune serum or postimmune serum. The cell-serum mixtures were incubated in transwells for 20 hours. The cells were then stained and those on the surface were wiped out. Migrated cells were then visualized under a light microscope and counted. Average over three replications with SD are shown.

HCC1954 cells [8] = experiment: Serum cytotoxicity on HCC1954 cells (Example 5 patient); format: cell-based, human; conditions: week 7 serum, 10%, 48 hours; FIG. 14B
Description: as §1

NK cells [9] = experiment: NK cell activation in vaccinated human patients; format: in vivo; conditions: human patients administered the vaccine
MCF-7 cells = experiment: Toxicity against MCF-7 cells; format: cell-based, human; conditions: other experiments
NK cells [10] = experiment: NK cell activation in mice; format: in vivo
[11] = tested on: multiple-antigen peptide (MAP) version of P10s; experiment: ELISA of anti-P10s antibodies in sera/plasma of vaccinated subjects; format: in vivo, human; conditions: for Immunized plasma binding to MAP (ELISA): one line per subject
Description: IgM and IgG fractions of serum antibodies from the immunized patient bind to MAP form of P10s in ELISA assays. ELISA plates were coated with 1 μg/well of the P10s MAP peptide in carbonate-bicarbonate buffer overnight. Serial dilutions were added after blocking wells in PBS containing 0.5% FBS and 0.2% Tween 20 for 1 h at 37° C. Serum dilutions were incubated for two hours at 37° C. After washing, wells were incubated with HRP-conjugated mouse anti-human IgM and IgG for 1 hour at 37° C., then substrate was added and the reaction was stopped after 20 minutes. Plates were read by an ELISA reader at […]. Titers were estimated from absorbance-versus-dilution curves by linear regression. The intercept of the regression line for each subject's pre-immune serum was defined as the absorbance cutoff for determining end-point titer for that subject, and the dilution where each sample's regression line crossed the subject's absorbance cutoff was defined to be the sample's end-point titer. Extrapolation beyond one dilution below the minimum or above the maximum actual dilutions was not allowed. This procedure normalized each subject's pre-immune titer to be 1:100, and subjects with a 10-fold or greater increase in end-point titer over the 1:100 titer are considered responders.
ELISA plates were coated with MAP version of P10s and reactivity of two-fold serial dilutions of pre- and post-immune sera was detected by HRP-conjugated anti-human IgG (FIG. 7A) and IgM (FIG. 7B). The endpoint titers shown in FIG. 7A and FIG. 7B were estimated from absorbance-versus-dilution curves by linear regression. The intercept of the regression line for each subject's pre-immune serum was the value used as the absorbance cutoff for determining end-point titer for that subject, and the dilution where each sample's regression line crossed the subject's absorbance cutoff was defined to be the sample's end-point titer. Extrapolation beyond one dilution below the minimum or above the maximum actual dilutions was not allowed. This procedure normalized each subject's pre-immune titer to be 1:100.
The presence of anti-P10s antibodies in the sera of patients before and after vaccination was assessed with ELISA. ELISA plates were coated with 1 μg/well of the multiple-antigen peptide (MAP) version of P10s in carbonate-bicarbonate buffer (Sigma-Aldrich, St. Louis, Mo.) overnight. Serial 2-fold dilutions of plasma and serum samples, from 1:100 (dilution step 0) to a final dilution of 1:12800 (dilution step 7), were added after blocking wells with PBS containing 0.5% FBS and 0.2% Tween 20 (Blocking buffer) for 1 h at 37° C. Serum dilutions in blocking buffer were incubated for two hours at 37° C. After washing, wells were incubated with HRP-conjugated mouse anti-human IgM and IgG (Sigma-Aldrich) for 1 hour at 37° C. Then Tetramethylbenzidine substrate (Sigma-Aldrich) was added and the reaction was stopped after 20 minutes. Plates were read using an ELISA reader at […].
The resulting absorbance-versus-dilution curves were used to estimate normalized endpoint titers as follows. (1) A linear regression of absorbance versus dilution step was performed on the serial dilutions of each sample from each subject, in which dilution steps were numbered as described above. (2) The intercept of the regression line for each subject's pre-immune sample was the value used as the absorbance cutoff for determining the endpoint titers of all samples collected from that subject. (3) The dilution step where each sample's regression line crossed the subject's absorbance cutoff was determined and called X(c), and the normalized endpoint titer was estimated from X(c) as Titer=1:(100*2^X(c)). This procedure normalized each subject's pre-immune titer to be 1:100. […]

HLA-DR = conditions: cited from earlier work

## H-Trp-Arg-Tyr-Thr-Ala-Pro-Val-His-Leu-Gly-Asp-Gly-dAla-Lys-CHAla-Val-Ala-Ala-Trp-Thr-Leu-Lys-Ala-Ala-dAla-NH2 [P10s-PADRE]
ZR-75-1 cells
  toxicity: toxicity was observe
MDA-MB-231 cells [1]
  apoptosis: induced apoptosis
HCC1954 cells [2]
  binding of vaccine-induced serum to cells: bound
MCF-10A cells
  toxicity of plasma: No toxicity
[3]; 300 μg peptide per vaccination
  Disease Progression: Stable; also recorded: Progressed
[3]; 500 μg peptide per vaccination
  Disease Progression: Stable
MDA-MB-231 cells [4]
  effect of pre-incubation with post-immunization serum on docetaxel toxicity: sensitized tumor cells to docetaxel toxicity
[5]; 300 μg peptide per vaccination
  Immunized plasma toxicity on cancer cells: Yes
[5]; 500 μg peptide per vaccination, subject #5: high background toxicity in preimmune plasma
  Immunized plasma toxicity on cancer cells: Yes (2×) and No†
[6]
  lung lesions after vaccination: improvement of their lung lesions
HCC1954 cells [7]
  migration of cells: inhibited the migration
HCC1954 cells [8]
  cell death on incubation with post-immunization serum: significant stimulation of cell death
NK cells [9]
  NK cell activation: NK cells were activated
MCF-7 cells
  toxicity: no toxicity
NK cells [10]
  NK cell activation: no NK activation
[11]; 300 μg peptide per vaccination
  Immunized plasma binding to MAP (ELISA): Yes
[11]; 500 μg peptide per vaccination
  Immunized plasma binding to MAP (ELISA): Yes
[11]; 500 μg vs 300 μg, FIG. 10
  normalized endpoint titers, higher dose cohort vs lower dose cohort: higher normalized endpoint titers
[11]; Example 5 patient
  anti-peptide IgG persistence: remained high
  anti-peptide IgM persistence: returned back to the baseline by week 19
[11]; Example 5 patient, FIG. 13
  time course of anti-peptide IgM and IgG: peaked at week seven
[11]; all six subjects, FIG. 10
  IgG response to P10s MAP peptide form after immunization: persistent IgG response
[11]; all subjects of Example 3, FIGS. 4, 5
  IgG and IgM response to the vaccine: All subjects displayed an IgG and IgM response
[11]; subject #2 (300 μg), lowest of range
  increase of anti-peptide serum IgG normalized endpoint titer at week 7 compared to pre-immune: 31 folds
[11]; subjects #5 and #6 (500 μg), highest of range
  increase of anti-peptide serum IgG normalized endpoint titer at week 7 compared to pre-immune: 256 folds
[11]; three subjects evaluated further
  persistence of anti-P10s titer: starts to drop one year after the last immunization

## dAla-Lys-CHAla-Val-Ala-Ala-Trp-Thr-Leu-Lys-Ala-Ala-dAla [PADRE]
HLA-DR
  number of the 16 most common types of HLA-DR with which complexes are formed: at least 15
